This note sets out measurements from US8598314B2 (priority 2007, dated 2013).

The target of one experiment is T1, ACE from rabbit lung (Oryctolagus cuniculus, UniProt P12822).
T1 construct: ACE from rabbit lung; purchased Sigma Chemical Co; host or cells: rabbit lung tissue
T1 sequence (P12822 34-1310): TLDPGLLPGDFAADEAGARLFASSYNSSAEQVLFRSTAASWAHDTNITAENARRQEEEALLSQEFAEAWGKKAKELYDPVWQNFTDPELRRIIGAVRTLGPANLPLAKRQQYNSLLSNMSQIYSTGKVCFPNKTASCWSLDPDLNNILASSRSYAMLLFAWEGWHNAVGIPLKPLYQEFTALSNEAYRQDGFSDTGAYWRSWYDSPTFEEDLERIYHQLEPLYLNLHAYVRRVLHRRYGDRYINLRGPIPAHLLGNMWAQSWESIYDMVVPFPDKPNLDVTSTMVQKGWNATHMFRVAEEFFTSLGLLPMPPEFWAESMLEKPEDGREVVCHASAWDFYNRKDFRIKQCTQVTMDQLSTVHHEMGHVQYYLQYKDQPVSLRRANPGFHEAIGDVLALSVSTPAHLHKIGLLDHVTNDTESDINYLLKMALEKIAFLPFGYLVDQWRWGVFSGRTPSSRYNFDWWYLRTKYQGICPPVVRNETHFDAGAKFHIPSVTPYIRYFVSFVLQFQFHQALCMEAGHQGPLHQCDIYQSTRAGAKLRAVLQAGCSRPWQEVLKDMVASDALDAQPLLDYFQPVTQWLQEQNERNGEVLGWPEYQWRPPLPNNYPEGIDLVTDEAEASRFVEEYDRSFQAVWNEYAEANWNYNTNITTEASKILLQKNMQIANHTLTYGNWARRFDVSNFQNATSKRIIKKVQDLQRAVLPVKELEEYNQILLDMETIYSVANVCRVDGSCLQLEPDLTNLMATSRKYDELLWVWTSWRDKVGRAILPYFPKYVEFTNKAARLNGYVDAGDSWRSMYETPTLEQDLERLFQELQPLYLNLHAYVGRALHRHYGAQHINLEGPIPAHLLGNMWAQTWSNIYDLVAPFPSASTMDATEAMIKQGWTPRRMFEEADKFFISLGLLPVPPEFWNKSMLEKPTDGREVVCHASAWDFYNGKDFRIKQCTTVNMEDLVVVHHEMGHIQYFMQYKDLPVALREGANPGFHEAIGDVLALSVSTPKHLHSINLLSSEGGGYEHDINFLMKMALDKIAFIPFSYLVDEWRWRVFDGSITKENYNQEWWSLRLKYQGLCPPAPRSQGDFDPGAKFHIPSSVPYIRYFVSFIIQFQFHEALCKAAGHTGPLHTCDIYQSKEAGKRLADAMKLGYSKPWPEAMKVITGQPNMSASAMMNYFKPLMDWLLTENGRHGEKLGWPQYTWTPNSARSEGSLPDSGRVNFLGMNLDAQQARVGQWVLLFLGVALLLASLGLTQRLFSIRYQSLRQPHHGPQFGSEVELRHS
Briefly: ACE inhibition assay. Format: biochemical. On the procedure:
Peptide-ACE peptidase inhibitor conjugate compounds were assessed in an ACE inhibition assay using purified ACE enzyme and chromogenic substrates. An ACE stock solution was prepared by dissolving 0.1 unit of enzyme (ACE from rabbit lung, Sigma Chemical Co., St. Louis, Mo.) in 0.640 mL of HEPES buffer (0.1 M, pH=8). A 2 mM stock solution of substrate (N-benzyloxycarbonyl-Phe-His-Leu-OH) dissolved in methanol. The ACE inhibitor compounds were dissolved in phosphate buffer (0.1 M, pH=8) at concentrations of 0.0, 1, 10, 20, 60 and 100 μM. For the inhibition assay, six 2 mL microcentrifuge tubes were prepared containing 1.45 mL of phosphate buffer pH=8, 0.05 mL of 10% NaCl and 0.015 mL of substrate solution. To each microcentrifuge tube was added 0.015 mL of one of the ACE inhibitor compound's stock solutions. The solutions were heated at 37° C. for about 5 minutes. The reaction was started by the addition of 5 μL of the ACE stock solution to each tube mixture (30 seconds in between). The reaction mixtures were incubated at 37° C. After 5 min, 10 min, 30 min and 60 min., aliquots of 100 μL were taken from each tube (each sample was taken in intervals of 30 seconds). Tubes containing the 100 μL sample were floated in a boiling water bath for 5 min. and then cooled. The reaction samples were then treated with 20 μL of 2M NaOH and 20 μL of 0.1% phthaldialdehyde solution. The tubes were shaken for 4 minutes and 10 μL of 6 M HCl were added. […] Initial rates were determined from linear portions of product release curves. Starting substrate concentration in all assays was 20 μM. Apparent binding constants (Kd^app or Ki^app) of inhibitors to ACE were determined by fitting inhibition curves (initial rate vs. inhibitor concentration) to equation:
[formula] where v0 is reaction rate in the absence of inhibitor and [I]-inhibitor concentration. Fits were done by least-squares method using KaleidaGraph 3.6 (Synergy Software, Reading Pa.).

The test system of the next experiment is plasma carboxypeptidase. Briefly: Carboxypeptidase activity assay, PYY(3-36) in human plasma. It counts as biochemical. The settings on record: for inhibition of plasma carboxypeptidase activity (in words): protease inhibitor at a final concentration of 1 mM; for inhibition of the formation of PYY(3-35) (in words): 0.5 mM in human plasma, FIGS. 10-12. On the procedure: Carboxypeptidase activity assays were performed in the presence of various agents to test for carboxypeptidase inhibitor activity of the agents.
The remainder of the sample was placed in an incubator at 37° C., mixing at 600 RPM for sixty minutes. At 10 minute intervals, a 100 μl sample of the mixture was removed and transferred to a separate microcentrifuge tubes. Following the transfer of the 100 μL sample at the zero time point and each 10 minute interval, each collected sample was extracted by slow addition of 100 μl cold 0.2% formic acid:acetonitrile, while mixing. After addition of the acetonitrile solution, the sample was vortex mixed at high speed for 15 seconds. The extracted samples were stored at −20° C. for at least 20 minutes and then centrifuged at 11,000×g for 10 minutes at 5° C. The supernatant of each sample was transferred to a new microcentrifuge tube, centrifuged again, and finally transferred for LC/MS analysis. The MS analysis was a Q1 single ion monitoring method that detects the most intense ion of the parent molecule and the peptide fragment of interest.

The subject of another experiment is NIH/Swiss mice. Briefly: Oral glucose tolerance test (OGTT), glucose lowering. Format: in vivo. The settings on record: 30 nM/kg, blood glucose. The method, then: . Test compounds were injected IP (t=0 min) immediately following baseline measurements of 2 hour fasted NIH/Swiss mice. Blood samples were taken at 60, 120, and 180 minutes after injection. In some assays, samples were also taken at 240 minutes after the injection. Blood glucose was measured with a One-Touch® Ultra® glucose meter (LifeScan, Inc., Milpitas, Calif.). […].
The tests were performed as described in Example 5.

For orientation: IC50 means the midpoint of a concentration-inhibition curve.

Read-outs that look alike come from different tables or passages of the source. *1 amine or outer side, *2 acyl side, *3 side chain or, on linkers, in order; H or OH if unused. Where no end group is shown, it is not given here. Side-chain parts run from the residue outwards. [ ]: non-standard residue; d: D form. The star is where a group is joined. γGlu = O=C(O)[C@H](CCC(=O)[*:2])N[*:1]; Pyrrolidine(2S-CN) = N#C[C@@H]1CCCN1*; NMeY = CN[C@@H](Cc1ccc(O)cc1)C(=O)O; AEEA = NCCOCCOCC(=O)O

`CC[C@H](C)[C@H](NC(=O)[C@H](Cc1ccccc1)NC(=O)[C@H](CC(C)C)NC(=O)[C@H](CCCNC(=N)N)NC(=O)[C@@H](NC(=O)[C@H](C)NC(=O)[C@H](CCC(=O)O)NC(=O)[C@H](CCC(=O)O)NC(=O)[C@H](CCC(=O)O)NC(=O)[C@H](CC(C)C)NC(=O)[C@H](CCC(N)=O)NC(=O)[C@H](CCCCN)NC(=O)[C@H](CO)NC(=O)[C@H](CC(C)C)NC(=O)[C@H](CC(=O)O)NC(=O)[C@H](CO)NC(=O)[C@@H](NC(=O)[C@H](Cc1ccccc1)NC(=O)[C@@H](NC(=O)CNC(=O)[C@H](CCC(=O)O)NC(=O)CNC(=O)[C@@H](N)Cc1c[nH]cn1)[C@@H](C)O)[C@@H](C)O)C(C)C)C(=O)N[C@@H](CCC(=O)O)C(=O)N[C@@H](Cc1ccccc1)C(=O)N[C@@H](CC(C)C)C(=O)N[C@@H](CCCCN)C(=O)N[C@@H](CC(N)=O)C(=O)NCC(=O)NCC(=O)NCCCC[C@H](NC(CCc1ccccc1)C(=O)O)C(=O)N1CCCC1C(=O)O` (stereo partly drawn) [3633/42/1, [^14Leu,^25Phe]Exendin-4(1-28)-Gly-Gly-CONH-Lisinopril diacid]: the IC50 at ACE from rabbit lung is 1500 nM.
For `NCCc1ccc(S(=O)(=O)F)cc1` [AEBSF, 4-(2-aminoethyl)-bezenesulfonylfluoride, reference compound], the “inhibition of plasma carboxypeptidase activity (in words)” value with plasma carboxypeptidase is reported as “inhibited”.
Regarding `CC[C@H](C)[C@H](NC(=O)[C@H](CC(C)C)NC(=O)[C@H](Cc1c[nH]c2ccccc12)NC(=O)[C@H](CC(=O)O)NC(=O)[C@@H](NC(=O)[C@H](Cc1ccccc1)NC(=O)[C@H](CCC(=O)O)NC(=O)[C@H](CCCCN)NC(=O)[C@H](C)NC(=O)[C@H](C)NC(=O)[C@H](CCCCN)NC(=O)[C@H](CCC(=O)O)NC(=O)[C@H](CC(=O)O)NC(=O)[C@H](CC(C)C)NC(=O)[C@H](CCC(N)=O)NC(=O)[C@H](CCC(N)=O)NC(=O)[C@@H](NC(=O)[C@@H](NC(=O)[C@H](CC(=O)O)NC(=O)[C@H](CO)NC(=O)[C@@H](NC(=O)[C@H](Cc1ccccc1)NC(=O)[C@@H](NC(=O)CNC(=O)[C@H](CCC(=O)O)NC(=O)[C@H](C)NC(=O)[C@@H](N)Cc1c[nH]cn1)[C@@H](C)O)[C@@H](C)O)C(C)C)[C@@H](C)O)[C@@H](C)CC)C(=O)N[C@@H](CC(N)=O)C(=O)NCC(=O)NCC(=O)N1CCC[C@H]1C(=O)N[C@@H](CO)C(=O)N[C@@H](CCCCN)C(=O)N[C@@H](CCC(=O)O)C(=O)N[C@H](C(=O)N[C@H](C(=O)N[C@@H](CO)C(=O)NCCOCCOCCOCC(=O)NCCOCCOCC(=O)NCCCC[C@H](NC(CCc1ccccc1)C(=O)O)C(=O)N1CCC[C@H]1C(=O)O)[C@@H](C)CC)[C@@H](C)CC` (some centres unmarked) [Compound 5713], the IC50 on ACE from rabbit lung (substrate N-benzyloxycarbonyl-Phe-His-Leu-OH 20 μM, read-out: ACE inhibition IC50) came out at 700 nM.
Take `O=C(O)CN(CCN(CC(=O)O)CC(=O)O)CC(=O)O` [EDTA, reference compound]: the “inhibition of plasma carboxypeptidase activity (in words)” value in the experiment on plasma carboxypeptidase is given as “not”.
`NCCCC[C@H](N[C@@H](CCc1ccccc1)C(=O)O)C(=O)N1CCC[C@H]1C(=O)O` [Lisinopril, reference compound]: the 50% inhibitory concentration (IC50) on ACE from rabbit lung (commercial lisinopril, read-out: ACE inhibition IC50) was determined as 1.3 nM; on ACE from rabbit lung (synthesized lisinopril, read-out: ACE inhibition IC50), 2.8 nM.
Consider `CNC(Cc1ccc(O)cc1)C(N)=O` (centres unmarked) [N-methyl-Tyr-NH2], for which the “inhibition of the formation of PYY(3-35) (in words)” value in the experiment on plasma carboxypeptidase was “did not inhibit”.
Take `CC(C)C[C@H](NP(=O)(O)O[C@@H]1O[C@@H](C)[C@H](O)[C@@H](O)[C@H]1O)C(=O)N[C@@H](Cc1c[nH]c2ccccc12)C(=O)O` [phosphoramidon, reference compound]: the “inhibition of plasma carboxypeptidase activity (in words)” value in the experiment on plasma carboxypeptidase is “not”.
Regarding “GIP(1-30)-Ado-Ado-Lys-N-ε-(2-(S)-cyano pyrrolidyl)”, the “OGTT (30 nM/kg) % maximal decrease” value with NIH/Swiss mice is listed as −17%.
The same measure, in the same setting: then “GIP(1-30)-Ado-Lys-N-ε-(2-(S)-cyano pyrrolidyl) (YAEGTFISDYSIAMDKIHQQDFVNWLLAQK)”, with −18%; and “GIP(1-30)-exendin-4(31-39)-Ado-Ado-Lys-N-ε-(2-(S)-cyano pyrrolidyl)”, with −22%.
As to “GIP(1-30)-exendin-4(31-39)-Ado-Lys-N-ε-(2-(S)-cyano pyrrolidyl)”, the “OGTT (30 nM/kg) % maximal decrease” value in the experiment on NIH/Swiss mice is −18%.
Still for that read-out and setting: then “Lys^30 N-ε-(Ado-(γ-L-Glu-2-(S)-cyano pyrrolidyl)) GIP(1-30)-exendin-4(31-39)”, with −11%; and “[Lys^30 N-ε-(Ado-(γ-L-Glu-2-(S)-cyano pyrrolidyl))]GIP(1-30) (YAEGTFISDYSIAMDKIHQQDFVNWLLAQK([AEEA-γGlu-Pyrrolidine(2S-CN)]))”, with −10%; and “[^14Leu] GIP(1-30)-Ado-Lys-N-ε-(2-(S)-cyano pyrrolidyl) (YAEGTFISDYSIALDKIHQQDFVNWLLAQK)”, with −9%.
Same read-out and setting: the same measure for “[^16Lys (N-ε-(Aun-Aun-(γ-L-Glu-2-(S)-cyano pyrrolidyl)))] GIP(1-30)-exendin(31-39)”: −3%.
For “^36N-methyl-Tyr-amide-PYY(22-36) (ASLRHYLNLVTRQR[NMeY]-NH2; N-terminus assumed; SMILES CC(C)C[C@H](NC(=O)[C@H](CO)NC(=O)[C@H](C)N)C(=O)N[C@@H](CCCNC(=N)N)C(=O)N[C@@H](Cc1c[nH]cn1)C(=O)N[C@@H](Cc1ccc(O)cc1)C(=O)N[C@@H](CC(C)C)C(=O)N[C@@H](CC(N)=O)C(=O)N[C@@H](CC(C)C)C(=O)N[C@H](C(=O)N[C@H](C(=O)N[C@@H](CCCNC(=N)N)C(=O)N[C@@H](CCC(N)=O)C(=O)N[C@@H](CCCNC(=N)N)C(=O)N(C)[C@@H](Cc1ccc(O)cc1)C(N)=O)[C@@H](C)O)C(C)C) [N-terminal truncation of 36N-methyl-Tyr-amide-PYY(3-36)]”, the “inhibition of the formation of PYY(3-35) (in words)” value in the experiment with plasma carboxypeptidase was “measurable but lower activity”.
